This test addresses PDE10 enzyme. Kind of test: MPDE10A7 enzyme activity and inhibition (IMAP TR-FRET assay). Format: biochemical.

Here are results for 2 compounds from patent US9718803B2 (AMGEN INC., priority 2010, dated 2017).

Where two headings read alike, the source gives them in different places.

Protocol: MPDE10A7 Enzyme Activity and Inhibition
Enzyme Activity. An IMAP TR-FRET assay was used to analyze the enzyme activity (Molecular Devices Corp., Sunnyvale Calif.). 5 L of serial diluted PDE10A (BPS Bioscience, San Diego, Calif.) or tissue homogenate was incubated with equal volumes of diluted fluorescein labeled cAMP or cGMP for 60 min in 384-well polystyrene assay plates (Corning, Corning, N.Y.) at room temperature. After incubation, the reaction was stopped by adding 60 L of diluted binding reagents and was incubated for 3 hours to overnight at room temperature. The plates were read on an Envision (Perkin Elmer, Waltham, Mass.) for time resolved fluorescence resonance energy transfer. The data were analyzed with GraphPad Prism (La Jolla, Calif.).
Enzyme Inhibition. To check the inhibition profile, 5 μL of serial diluted compounds were incubated with 5 μL of diluted PDE10 enzyme (BPS Bioscience, San Diego, Calif.) or tissue homogenate in a 384-well polystyrene assay plate (Corning, Corning, N.Y.) for 30 min at room temperature. […] The reaction was stopped by adding 60 μL of diluted binding reagents and plates were read on an Envision (Perkin Elmer, Waltham, Mass.) for time resolved fluorescence resonance energy transfer. The data were analyzed with GraphPad Prism (La Jolla, Calif.).

In general, IC50 refers to the midpoint of a concentration-inhibition curve. With `O=C(O)c1cccc(-c2nccnc2C2CN(c3ccc4ccccc4n3)C2)c1` [Example 33.1, Lithium 3-(3-(1-(Quinolin-2-Yl)Azetidin-3-Yl)Pyrazin-2-Yl)Benzoate], for the setting “running text of examples, fluorescein labeled cAMP or cGMP substrate, read-out: PDE10 IC50”, the IC50 was 1.6 nM. Consider `N#Cc1ccc(-c2nccnc2C2CN(c3ccc4ccccc4n3)C2)cc1` [Example 5.8, 4-(3-(1-(quinolin-2-yl)azetidin-3-yl)pyrazin-2-yl)benzonitrile], for which the half-maximal inhibitory concentration (IC50) (read-out: IC50) worked out at 3 nM.
